Key:
[1] = Stability in acid solution by 1H NMR spectroscopy; format: physicochemical; details: D2O + one drop deuterated TFA, 27° C.
Protocol: Tetrahydrouridine (THU, 5 mg) is dissolved in D2O (0.75 mL). To this same sample is added one drop of deuterated TFA followed by an immediate ^1HNMR spectrum (FIG. 10). Even at this earliest time point, the peak at 5.4 ppm (˜10% conversion by integration) is indicative of the ring expansion to the TH-pyranose. After 4 hours, the TH-pyranose is more prevalent indicating about 60% conversion. At 72 hours, the conversion is almost entirely complete (>80%).
To this same sample is added one drop of deuterated TFA followed by an immediate ^1HNMR spectrum (FIG. 12). After the first time point, the only notable change is the epimerization of the aminal which is noted by the extra peaks at 5.92 and 5.93. After 4 hours and 72 hours (FIG. 13), there are no other notable changes in the spectra (D2O, 300 MHz, 27° C.).

[2] = tested on: L1210 mouse lymphoma model; test: Decitabine induced survival in the L1210 survival model; format: in vivo; details: for Survival compared to vehicle control and CDA inhibitor alone: p<0.05; for Mean Liver wts. (g) ± SD / Mean Spleen wts. (g) ± SD: on autopsy; for % ILS (Increased Life Span): vs vehicle group
Protocol: 30 CD2F1 6-7 weeks old female mice are randomly separated into 6 groups:
L1210 Intravenous (Lv.) Injection: Prior to experiment, L1210 cells are passed at least 3 times in CD2F1 female mice. The mice are injected intraperitoneally (i.p.) with L1210 ascites one prior week to sacrifice using CO2. Each mouse is placed on its back, its belly surface is cleaned with alcohol wipes and a small incision is made into its peritoneal cavity. 2 ml of ice cold 2.1% bovine serum albumin (BSA) in saline is injected into the cavity. Fluid is withdrawn from the cavity, transferred with an 18G 3 cc syringe into a clean sterile tube, and kept on ice. The fluid is diluted 1:10 in 2.1% BSA in saline and one drop of zap-o-globin is added to 2 ml of diluted ascites. Diluted ascites (dilute 1:10 again) are counted on a hematocytomer and the number of cells/ml is calculated. A stock of ascites in BSA solution is diluted to 1×10^4 cells/0.1 ml. Mice are injected with 0.1 ml of cell solution with a 27G needle.
Decitabine is prepared at a 1 mg/ml stock in PBS and diluted appropriately to achieve a 0.01 and 0.02 mg/ml dosing solution.
Dosing Scheme: Decitabine is prepared fresh twice a day. All dose solutions are stored on ice while dosing. Mice are dosed i.p. or orally (p.o.) twice a day (8 hours apart) for 4 consecutive days.
Survival and Autopsy: Mice are observed for survival and weighed daily (Monday to Friday) for the duration of the study (30 days). Dead mice are autopsied and observed for the presence of tumors in organs. Tumor deaths are determined by liver weights greater than 1.6 g and spleen weights greater than 150 mg as per Covey et al., Eur. J. Cancer Oncol. 1985.

[3] = tested on: A2780 human ovarian cancer xenograft; test: Gemcitabine-induced reduction of tumor volume in the mouse A2780 human ovarian cancer xenograft model; format: in vivo
Protocol: Female NCr nu/nu 5-6 week old mice are implanted subcutaneously with 30 to 60 mg tumor fragments. On day 11 when the tumors are approximately 200 mm^3, treatment starts as described in Table 5.
Tumor volume is followed throughout the experiment. Tumor volume is measured three times weekly. Tumor burden (mg=mm^3) is calculated from caliper measurements by the formula for the volume of a prolate ellipsoid (L×W^2)/2 where L and W are the respective orthogonal length and width measurements (mm).
The primary endpoints used to evaluate efficacy in the A2780 model are complete and partial tumor regressions, tumor growth delay and the number of tumor free survivors at the end of the study. A complete response (CR) is defined as a decrease in tumor size to an undetectable size (<50mm^3). A partial response (PR) is defined as >50% decrease in tumor mass form starting tumor size. A tumor that achieves a CR or PR during the study but starts to grow again is still considered a CR or PR. Tumor free survival (TFS) at the end of the study would be no detectable tumor (<50 mm^3) at study termination (day 74). Tumor growth delay (TGD) is defined in this experiment as the median number of days for the treatment group compared to the control group to reach 750 mm^3.

[4] = CDA inhibitor plus decitabine 0.1 mg/kg
[5] = 30 mg/kg Gemcitabine PO + Compound 1 10 mg/kg PO q3dx4
[6] = Group 2: Compound 1 10 mg/kg p.o. alone
[7] = Group 2: Compound 1 10 mg/kg p.o. x2 for 4 days alone
[8] = Group 4: Compound 1 1 mg/kg + 0.1 mg/kg decitabine p.o.
[9] = Group 5: Compound 1 10 mg/kg + 0.1 mg/kg decitabine p.o.
[10] = Group 3: 0.1 mg/kg decitabine p.o. alone
[11] = 10 mg/kg Gemcitabine PO q3dx4 alone
[12] = 30 mg/kg Gemcitabine PO q3dx4 alone

SMILES: O=C1N[C@H](O)CCN1C1O[C@H](CO)[C@@H](O)C1(F)F (single isomer, unassigned) [Compound 1a, 2′2′-DiFluoro-TetraHydroUridine]
- Pyranose formation in acid ([1]; up to 72 hours, only epimerization of the aminal noted): no pyranose formation occurs
- Extending survival compared to the lower doses ([2]; 10 mg/kg Compound 1a in combination with DAC): more effective
- Survival compared to vehicle control and CDA inhibitor alone [2, 4]: live longer

SMILES: O=C1NC(O)CCN1C1O[C@H](CO)[C@@H](O)C1(F)F (some centres unmarked) [Compound 1, 2′2′-DiFluoro-TetraHydroUridine]
- TGD (tumor growth delay) ([3]; 10 mg/kg Compound 1 PO q3dx4 alone, median days to reach 750 mm^3 vs control): 0.4 days
- Tumors displaying CR ([3]; 10 mg/kg Gemcitabine PO + Compound 1 10 mg/kg PO q3dx4): 75%
- TGD (tumor growth delay) ([3]; 10 mg/kg Gemcitabine PO + Compound 1 10 mg/kg PO q3dx4, p<0.05 vs 10 mg/kg Gem alone): 19.2 days
- CR [3, 5]: 100%
- Incidence of TFS at day 74 [3, 5]: 50%
- TGD (tumor growth delay) ([3]; 30 mg/kg Gemcitabine PO + Compound 1 10 mg/kg PO q3dx4, p<0.05 vs 30 mg/kg Gem alone): >57 days
- Mean Liver wts. (g) ± SD [2, 6]: 1.99 ± 0.22 g
- Mean Spleen wts. (g) ± SD [2, 6]: 0.39 ± 0.07 g
- Mean Survival (days) ± SD [2, 7]: 7.40 ± 0.55 days
- % ILS (Increased Life Span) [2, 7]: 0.00%
- Mean Survival (days) ± SD ([2]; Group 4: Compound 1 1 mg/kg + 0.1 mg/kg decitabine p.o. x2 for 4 days): 12.8 ± 0.45 days
- Mean Liver wts. (g) ± SD [2, 8]: 2.03 ± 0.08 g
- Mean Spleen wts. (g) ± SD [2, 8]: 0.29 ± 0.03 g
- % ILS (Increased Life Span) [2, 8]: 72.97%
- Mean Survival (days) ± SD ([2]; Group 5: Compound 1 10 mg/kg + 0.1 mg/kg decitabine p.o. x2 for 4 days): 14.2 ± 0.45 days
- Mean Liver wts. (g) ± SD [2, 9]: 2.02 ± 0.27 g
- Mean Spleen wts. (g) ± SD [2, 9]: 0.29 ± 0.07 g
- % ILS (Increased Life Span) [2, 9]: 91.89%

SMILES: O=C1N[C@H](O)CCN1C1O[C@H](CO)[C@@H](O)[C@H]1F (stereo partly drawn) [Compound 3a, 2′(S)-fluoro-2′deoxy-tetrahydrouridine]
- Survival compared to vehicle control and CDA inhibitor alone [2, 4]: live longer

SMILES: Nc1ncn([C@H]2C[C@H](O)[C@@H](CO)O2)c(=O)n1 [Decitabine, 5-Aza-2′-deoxycytidine, reference compound]
- Mean Liver wts. (g) ± SD [2, 10]: 2.05 ± 0.17 g
- Mean Spleen wts. (g) ± SD [2, 10]: 0.33 ± 0.06 g
- % ILS (Increased Life Span) [2, 10]: 43.24%
- Mean Survival (days) ± SD ([2]; Group 3: 0.1 mg/kg decitabine p.o. x2 for 4 days alone): 10.6 ± 0.56 days
- Survival compared to vehicle control and CDA inhibitor alone ([2]; decitabine 0.1 mg/kg alone): live longer
- Efficacy (survival) compared to 0.1 mg/kg decitabine i.p. ([2]; decitabine 0.1 mg/kg p.o., not significantly different, p=0.052): less effective

SMILES: Nc1ccn([C@@H]2O[C@H](CO)[C@@H](O)C2(F)F)c(=O)n1 [Gemcitabine, reference compound]
- Complete responses (CR) [3, 11]: no CRs
- Partial responses (PR) [3, 11]: no
- Tumor free survivors (TFS) at day 74 [3, 11]: no
- TGD (tumor growth delay) ([3]; 10 mg/kg Gemcitabine PO q3dx4 alone, not statistically significant): 6.1 days
- TGD (tumor growth delay) ([3]; 30 mg/kg Gemcitabine PO q3dx4 (MTD) alone, p<0.05 vs untreated control): 22 days
- CRs [3, 12]: 63%
- Tumor free survivors (TFS) at day 74 [3, 12]: no TFS

SMILES: O=C1NC(O)CCN1[C@@H]1O[C@H](CO)[C@@H](O)[C@H]1O (some centres unmarked) [THU, Tetrahydrouridine]
- Conversion to TH-pyranose ([1]; after 4 hours): about 60%
- Conversion to TH-pyranose ([1]; at 72 hours): > 80%
- Conversion to TH-pyranose (by integration) ([1]; immediate spectrum): ~10%

Source: patent US8618075B2, “Certain compounds, compositions and methods” (Eisai Inc., priority 2007, dated 2013)
